Measurements as given in ChEMBL document CHEMBL4020712, “Synthesis of new N3-substituted dihydropyrimidine derivatives as L-/T- type calcium channel blockers” (Eur J Med Chem, 2017).
Activity calls are given as the source filed them. The calls are words filed in the database; no cut-off is given here.

Tests used:
[1] = target: Cav1.2 (voltage-dependent L-type calcium channel subunit alpha-1C) (Rattus norvegicus, UniProt P22002); assay: Inhibition of rat Cav1.2 expressed in human tsA-201 cells co-expressing Cavbeta1b/Cavalpha2delta1 assessed as tonic block at 10 uM at holding potential of -90 mV by whole cell patch clamp method relative to control; format: cell-based
[2] = target: Voltage-dependent T-type calcium channel subunit alpha-1H (Homo sapiens) (UniProt O95180); assay: Inhibition of human Cav3.2 alpha1 expressed in human tsA-201 cells assessed as tonic block at 10 uM at holding potential of -110 mV by whole cell patch clamp method; format: cell-based
Voltage-dependent T-type calcium channel subunit alpha-1H (Homo sapiens), sequence (O95180 whole entry): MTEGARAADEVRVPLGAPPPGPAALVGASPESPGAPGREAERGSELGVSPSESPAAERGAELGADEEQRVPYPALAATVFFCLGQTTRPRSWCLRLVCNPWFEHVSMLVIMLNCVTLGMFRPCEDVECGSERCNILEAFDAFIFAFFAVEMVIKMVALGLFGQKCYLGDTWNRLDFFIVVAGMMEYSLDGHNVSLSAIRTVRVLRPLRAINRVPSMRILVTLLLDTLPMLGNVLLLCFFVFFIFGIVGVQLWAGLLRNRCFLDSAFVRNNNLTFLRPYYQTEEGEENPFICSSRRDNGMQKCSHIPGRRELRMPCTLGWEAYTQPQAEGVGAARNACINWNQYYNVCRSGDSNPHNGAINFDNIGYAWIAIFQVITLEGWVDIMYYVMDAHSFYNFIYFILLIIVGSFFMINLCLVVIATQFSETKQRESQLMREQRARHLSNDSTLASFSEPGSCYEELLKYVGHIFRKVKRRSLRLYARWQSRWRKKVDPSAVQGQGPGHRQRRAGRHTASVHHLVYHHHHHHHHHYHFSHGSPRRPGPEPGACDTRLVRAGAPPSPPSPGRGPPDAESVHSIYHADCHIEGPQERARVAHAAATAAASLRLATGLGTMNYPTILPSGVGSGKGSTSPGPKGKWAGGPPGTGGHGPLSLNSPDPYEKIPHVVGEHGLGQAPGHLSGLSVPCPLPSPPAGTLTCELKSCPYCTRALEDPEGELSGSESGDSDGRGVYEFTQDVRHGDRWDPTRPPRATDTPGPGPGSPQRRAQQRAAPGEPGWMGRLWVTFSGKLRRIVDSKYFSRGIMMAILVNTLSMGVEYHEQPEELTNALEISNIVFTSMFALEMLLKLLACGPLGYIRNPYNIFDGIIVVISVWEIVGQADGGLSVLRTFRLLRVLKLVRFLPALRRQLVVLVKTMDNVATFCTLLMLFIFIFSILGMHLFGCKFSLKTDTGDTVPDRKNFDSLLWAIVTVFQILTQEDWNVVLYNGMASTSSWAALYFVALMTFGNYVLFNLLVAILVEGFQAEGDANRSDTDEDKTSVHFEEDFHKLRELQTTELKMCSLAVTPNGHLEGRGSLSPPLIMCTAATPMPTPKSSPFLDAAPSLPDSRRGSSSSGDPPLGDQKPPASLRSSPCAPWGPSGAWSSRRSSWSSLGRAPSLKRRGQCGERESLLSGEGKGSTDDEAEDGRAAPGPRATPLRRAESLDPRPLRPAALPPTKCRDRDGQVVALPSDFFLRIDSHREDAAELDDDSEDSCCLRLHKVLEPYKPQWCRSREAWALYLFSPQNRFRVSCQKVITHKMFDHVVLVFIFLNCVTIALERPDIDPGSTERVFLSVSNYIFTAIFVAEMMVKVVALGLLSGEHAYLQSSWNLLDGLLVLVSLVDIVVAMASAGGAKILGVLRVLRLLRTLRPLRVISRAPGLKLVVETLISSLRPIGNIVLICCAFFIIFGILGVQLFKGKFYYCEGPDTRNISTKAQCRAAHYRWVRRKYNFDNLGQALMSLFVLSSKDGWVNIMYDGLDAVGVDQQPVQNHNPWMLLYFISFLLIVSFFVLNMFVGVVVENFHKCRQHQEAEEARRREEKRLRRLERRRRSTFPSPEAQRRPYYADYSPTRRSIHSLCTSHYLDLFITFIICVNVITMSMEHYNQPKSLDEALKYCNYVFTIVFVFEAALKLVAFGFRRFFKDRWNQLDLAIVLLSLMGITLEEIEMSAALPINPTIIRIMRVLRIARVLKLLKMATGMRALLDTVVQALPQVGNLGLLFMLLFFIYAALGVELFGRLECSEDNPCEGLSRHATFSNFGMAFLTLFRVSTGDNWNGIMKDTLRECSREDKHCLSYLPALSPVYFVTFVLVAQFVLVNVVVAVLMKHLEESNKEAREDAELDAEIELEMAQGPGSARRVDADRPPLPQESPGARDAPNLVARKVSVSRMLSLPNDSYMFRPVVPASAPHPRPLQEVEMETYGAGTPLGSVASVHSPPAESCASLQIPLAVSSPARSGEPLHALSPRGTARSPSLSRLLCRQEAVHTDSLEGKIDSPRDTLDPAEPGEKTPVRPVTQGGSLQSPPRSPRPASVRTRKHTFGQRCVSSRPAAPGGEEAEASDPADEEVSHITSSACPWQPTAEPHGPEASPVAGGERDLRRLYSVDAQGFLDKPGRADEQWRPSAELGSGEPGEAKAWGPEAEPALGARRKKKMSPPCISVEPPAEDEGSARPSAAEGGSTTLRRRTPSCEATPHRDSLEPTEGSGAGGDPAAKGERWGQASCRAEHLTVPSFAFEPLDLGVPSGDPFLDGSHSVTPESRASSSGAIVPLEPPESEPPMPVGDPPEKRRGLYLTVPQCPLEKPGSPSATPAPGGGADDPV

Cav1.2 (voltage-dependent L-type calcium channel subunit alpha-1C), sequence (P22002 whole entry): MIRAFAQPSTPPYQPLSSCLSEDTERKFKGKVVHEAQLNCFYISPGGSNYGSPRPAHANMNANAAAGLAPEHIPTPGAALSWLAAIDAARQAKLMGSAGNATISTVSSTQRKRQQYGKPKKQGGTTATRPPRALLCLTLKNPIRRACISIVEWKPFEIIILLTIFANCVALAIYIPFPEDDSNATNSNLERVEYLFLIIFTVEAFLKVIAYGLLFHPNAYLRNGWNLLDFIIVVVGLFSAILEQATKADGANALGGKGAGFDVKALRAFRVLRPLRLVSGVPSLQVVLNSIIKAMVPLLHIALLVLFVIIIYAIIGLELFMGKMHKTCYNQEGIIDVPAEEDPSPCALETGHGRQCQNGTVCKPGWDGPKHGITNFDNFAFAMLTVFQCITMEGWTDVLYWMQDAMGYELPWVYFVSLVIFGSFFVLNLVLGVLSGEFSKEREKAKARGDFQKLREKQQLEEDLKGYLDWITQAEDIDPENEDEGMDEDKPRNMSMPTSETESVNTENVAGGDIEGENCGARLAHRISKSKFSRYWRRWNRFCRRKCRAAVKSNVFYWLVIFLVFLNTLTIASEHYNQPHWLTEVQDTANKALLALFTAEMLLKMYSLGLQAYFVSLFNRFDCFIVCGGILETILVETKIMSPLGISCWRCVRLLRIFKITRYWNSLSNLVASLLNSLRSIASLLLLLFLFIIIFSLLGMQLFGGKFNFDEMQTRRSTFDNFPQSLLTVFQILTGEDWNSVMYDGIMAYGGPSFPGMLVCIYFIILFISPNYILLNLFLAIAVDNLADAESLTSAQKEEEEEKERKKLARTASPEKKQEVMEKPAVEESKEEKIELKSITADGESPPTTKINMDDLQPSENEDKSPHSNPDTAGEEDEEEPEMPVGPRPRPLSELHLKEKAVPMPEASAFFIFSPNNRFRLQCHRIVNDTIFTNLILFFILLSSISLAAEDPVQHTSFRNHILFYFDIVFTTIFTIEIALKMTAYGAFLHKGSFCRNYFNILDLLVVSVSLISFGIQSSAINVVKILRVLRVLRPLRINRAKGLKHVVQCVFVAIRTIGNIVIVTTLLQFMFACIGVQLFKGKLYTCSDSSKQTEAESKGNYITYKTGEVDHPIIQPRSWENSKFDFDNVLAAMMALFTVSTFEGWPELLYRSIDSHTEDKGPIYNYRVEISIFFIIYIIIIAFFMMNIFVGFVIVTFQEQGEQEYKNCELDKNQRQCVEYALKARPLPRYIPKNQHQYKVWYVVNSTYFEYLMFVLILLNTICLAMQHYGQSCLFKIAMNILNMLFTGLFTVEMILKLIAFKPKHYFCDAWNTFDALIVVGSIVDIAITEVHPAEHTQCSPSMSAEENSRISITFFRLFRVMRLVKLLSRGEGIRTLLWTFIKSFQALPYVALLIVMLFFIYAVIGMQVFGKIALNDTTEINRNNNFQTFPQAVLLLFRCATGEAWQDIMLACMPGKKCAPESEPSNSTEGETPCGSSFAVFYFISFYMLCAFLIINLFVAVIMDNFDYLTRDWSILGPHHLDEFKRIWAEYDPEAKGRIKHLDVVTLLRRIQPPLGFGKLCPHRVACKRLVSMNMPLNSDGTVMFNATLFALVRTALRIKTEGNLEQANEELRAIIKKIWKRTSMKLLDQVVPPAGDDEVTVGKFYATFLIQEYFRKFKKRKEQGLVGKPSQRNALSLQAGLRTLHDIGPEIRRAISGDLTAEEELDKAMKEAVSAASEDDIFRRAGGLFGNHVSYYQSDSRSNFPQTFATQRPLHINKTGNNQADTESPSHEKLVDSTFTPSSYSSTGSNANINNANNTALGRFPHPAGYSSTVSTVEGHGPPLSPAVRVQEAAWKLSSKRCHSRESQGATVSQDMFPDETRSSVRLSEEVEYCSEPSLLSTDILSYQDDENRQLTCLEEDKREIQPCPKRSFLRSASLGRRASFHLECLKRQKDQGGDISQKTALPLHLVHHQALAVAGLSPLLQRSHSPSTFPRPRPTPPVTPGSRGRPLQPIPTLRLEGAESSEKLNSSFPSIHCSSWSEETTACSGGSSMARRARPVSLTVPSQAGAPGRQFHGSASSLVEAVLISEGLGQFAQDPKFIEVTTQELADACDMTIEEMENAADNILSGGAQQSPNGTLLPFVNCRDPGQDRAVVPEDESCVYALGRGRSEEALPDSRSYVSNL

Row | SMILES | inhibition [2] | inhibition at 10 µM [1]
1 | CCOC(=O)C1=C(C)NC(=O)N(CCC(=O)NCC(c2ccccc2)c2ccccc2)C1c1cccc([N+](=O)[O-])c1 (stereo not drawn) | inactive | < 50%
2 | CCOC(=O)C1=C(C)NC(=O)N(CCC#N)C1c1cccc([N+](=O)[O-])c1 (stereo not drawn) | inactive | < 50%
3 | CCOC(=O)C1=C(C)NC(=O)N(CCC(=O)N(C)Cc2ccccc2)C1c1cccc([N+](=O)[O-])c1 (stereo not drawn) | inactive | < 50%
4 | CCOC(=O)C1=C(C)NC(=O)N(CCC(=O)OCc2cn(CC(=O)c3ccccc3)nn2)C1c1cccc([N+](=O)[O-])c1 (stereo not drawn) | Active | < 50%
5 | CCOC(=O)C1=C(C)NC(=O)N(CCC(=O)OCCOC)C1c1cccc([N+](=O)[O-])c1 (stereo not drawn) | Active | 50%
6 | CCOC(=O)C1=C(C)NC(=O)N(CCC(=O)OCc2cn(Cc3ccccc3)nn2)C1c1cccc([N+](=O)[O-])c1 (stereo not drawn) | Active | < 50%
7 | CCOC(=O)C1=C(C)NC(=O)N(CCC(=O)NCc2ccccc2)C1c1cccc([N+](=O)[O-])c1 (stereo not drawn) | inactive | < 50%
8 | C#CCOC(=O)CCN1C(=O)NC(C)=C(C(=O)OCC)C1c1cccc([N+](=O)[O-])c1 (stereo not drawn) | Active | 50%

Second part, led by results:

Row | inhibition [2] | SMILES | inhibition at 10 µM [1]
9 | inactive | CCOC(=O)C1=C(C)NC(=O)N(CCC(N)=O)C1c1cccc([N+](=O)[O-])c1 (stereo not drawn) | < 50%
10 | Active | CCOC(=O)CCN1C(=O)NC(C)=C(C(=O)OCC)C1c1cccc([N+](=O)[O-])c1 (stereo not drawn) | > 75%
11 | inactive | CCOC(=O)C1=C(C)NC(=O)N(CCC(=O)O)C1c1cccc([N+](=O)[O-])c1 (stereo not drawn) | < 50%
12 | inactive | CCOC(=O)C1=C(C)NC(=O)N(CCC(=O)OC)C1c1cccc([N+](=O)[O-])c1 (stereo not drawn) | < 50%
13 | inactive | CCOC(=O)C1=C(C)NC(=O)N(CCC(=O)NN)C1c1cccc([N+](=O)[O-])c1 (stereo not drawn) | < 50%
14 | inactive | CCOC(=O)C1=C(C)NC(=O)N(CCC(=O)OC(C)C)C1c1cccc([N+](=O)[O-])c1 (stereo not drawn) | < 50%
